According to ChEMBL document CHEMBL5678818, “Discovery of potent SOS1 inhibitors that block RAS activation via disruption of the RAS-SOS1 interaction” (Proc Natl Acad Sci U S A, 2019):

Experiments:
[1] = target: T1, Mitogen-activated protein kinase kinase kinase 5 (Homo sapiens) (UniProt Q99683); experiment: Inhibition of ASK1 (unknown origin) assessed as residual activity at 100 nM by KINOMEscan analysis relative to control
T1 sequence (whole entry): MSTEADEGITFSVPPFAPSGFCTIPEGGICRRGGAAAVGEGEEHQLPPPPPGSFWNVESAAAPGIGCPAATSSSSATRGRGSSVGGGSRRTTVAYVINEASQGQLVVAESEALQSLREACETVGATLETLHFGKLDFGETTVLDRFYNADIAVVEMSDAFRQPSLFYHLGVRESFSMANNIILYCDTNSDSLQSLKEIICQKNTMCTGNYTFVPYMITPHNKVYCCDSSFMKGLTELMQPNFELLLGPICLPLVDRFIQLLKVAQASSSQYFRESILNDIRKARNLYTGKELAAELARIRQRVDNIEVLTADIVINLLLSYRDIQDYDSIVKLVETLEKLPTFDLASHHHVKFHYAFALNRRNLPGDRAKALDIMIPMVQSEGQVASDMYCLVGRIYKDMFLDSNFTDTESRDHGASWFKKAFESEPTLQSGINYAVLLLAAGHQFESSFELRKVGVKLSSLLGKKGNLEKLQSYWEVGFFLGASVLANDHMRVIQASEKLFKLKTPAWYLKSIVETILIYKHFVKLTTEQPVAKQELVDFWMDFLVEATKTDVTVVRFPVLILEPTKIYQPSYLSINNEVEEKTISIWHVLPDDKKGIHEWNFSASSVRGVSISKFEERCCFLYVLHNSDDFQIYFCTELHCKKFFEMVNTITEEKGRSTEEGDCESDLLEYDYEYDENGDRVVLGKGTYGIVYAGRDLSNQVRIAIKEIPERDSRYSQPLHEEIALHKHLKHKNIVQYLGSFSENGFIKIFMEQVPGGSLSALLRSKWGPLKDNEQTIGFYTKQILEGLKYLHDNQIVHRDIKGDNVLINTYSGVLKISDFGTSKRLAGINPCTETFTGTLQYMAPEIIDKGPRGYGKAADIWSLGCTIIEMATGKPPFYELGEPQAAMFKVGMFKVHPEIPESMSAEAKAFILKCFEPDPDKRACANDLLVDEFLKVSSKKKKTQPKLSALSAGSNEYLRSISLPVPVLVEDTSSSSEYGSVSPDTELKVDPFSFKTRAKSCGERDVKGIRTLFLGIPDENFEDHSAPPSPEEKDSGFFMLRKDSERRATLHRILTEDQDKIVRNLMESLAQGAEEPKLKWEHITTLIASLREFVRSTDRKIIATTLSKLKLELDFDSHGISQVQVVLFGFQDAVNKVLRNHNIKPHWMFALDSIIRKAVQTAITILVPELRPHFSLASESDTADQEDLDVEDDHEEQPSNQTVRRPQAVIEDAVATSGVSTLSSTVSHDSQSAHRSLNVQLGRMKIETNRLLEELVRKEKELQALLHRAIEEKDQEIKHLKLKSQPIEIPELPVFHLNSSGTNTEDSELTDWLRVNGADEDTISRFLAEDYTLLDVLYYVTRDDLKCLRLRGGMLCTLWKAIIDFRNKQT

[2] = target: Cyclin-dependent kinase 7 (Homo sapiens) (UniProt P50613); experiment: Inhibition of CDK7 (unknown origin) assessed as residual activity at 100 nM by KINOMEscan analysis relative to control
[3] = target: T2, Serine/threonine-protein kinase LATS2 (Homo sapiens) (UniProt Q9NRM7); experiment: Inhibition of LATS2 (unknown origin) assessed as residual activity at 100 nM by KINOMEscan analysis relative to control
T2 sequence (whole entry): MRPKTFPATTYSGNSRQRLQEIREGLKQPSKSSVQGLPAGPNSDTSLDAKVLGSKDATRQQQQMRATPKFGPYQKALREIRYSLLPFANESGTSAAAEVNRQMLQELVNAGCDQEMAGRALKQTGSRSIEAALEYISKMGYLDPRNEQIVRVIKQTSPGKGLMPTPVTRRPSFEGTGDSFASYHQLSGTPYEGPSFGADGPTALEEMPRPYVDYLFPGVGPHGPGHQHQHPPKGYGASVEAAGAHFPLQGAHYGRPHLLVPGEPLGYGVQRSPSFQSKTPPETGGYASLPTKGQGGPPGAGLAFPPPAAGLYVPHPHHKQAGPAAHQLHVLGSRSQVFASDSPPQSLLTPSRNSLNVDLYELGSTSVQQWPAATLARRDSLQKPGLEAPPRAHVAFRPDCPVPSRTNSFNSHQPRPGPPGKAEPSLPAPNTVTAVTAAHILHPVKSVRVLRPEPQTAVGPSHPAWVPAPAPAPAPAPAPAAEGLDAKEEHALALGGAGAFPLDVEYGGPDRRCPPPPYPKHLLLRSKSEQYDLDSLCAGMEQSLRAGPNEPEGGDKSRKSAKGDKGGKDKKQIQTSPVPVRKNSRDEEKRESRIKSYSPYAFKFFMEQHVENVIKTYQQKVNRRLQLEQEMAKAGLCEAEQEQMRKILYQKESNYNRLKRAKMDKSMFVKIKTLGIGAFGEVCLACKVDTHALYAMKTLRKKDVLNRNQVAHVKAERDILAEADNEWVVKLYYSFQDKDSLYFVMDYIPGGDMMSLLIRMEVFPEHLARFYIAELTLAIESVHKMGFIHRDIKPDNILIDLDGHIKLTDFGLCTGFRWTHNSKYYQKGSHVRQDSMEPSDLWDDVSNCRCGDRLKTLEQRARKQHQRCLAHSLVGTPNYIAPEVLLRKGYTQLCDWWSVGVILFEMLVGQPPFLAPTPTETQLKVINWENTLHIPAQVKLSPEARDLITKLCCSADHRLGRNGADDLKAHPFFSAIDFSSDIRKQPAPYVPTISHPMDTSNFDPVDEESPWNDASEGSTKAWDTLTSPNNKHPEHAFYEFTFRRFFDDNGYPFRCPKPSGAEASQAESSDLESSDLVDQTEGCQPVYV

[4] = target: Ribosomal protein S6 kinase alpha-5 (Homo sapiens) (UniProt O75582); experiment: Inhibition of N-terminal RPS6KA5 kinetic domain 1 (unknown origin) assessed as residual activity at 100 nM by KINOMEscan analysis relative to control
Sequence of Ribosomal protein S6 kinase alpha-5 (Homo sapiens) (O75582 whole entry, looked up, the tested form may be a part): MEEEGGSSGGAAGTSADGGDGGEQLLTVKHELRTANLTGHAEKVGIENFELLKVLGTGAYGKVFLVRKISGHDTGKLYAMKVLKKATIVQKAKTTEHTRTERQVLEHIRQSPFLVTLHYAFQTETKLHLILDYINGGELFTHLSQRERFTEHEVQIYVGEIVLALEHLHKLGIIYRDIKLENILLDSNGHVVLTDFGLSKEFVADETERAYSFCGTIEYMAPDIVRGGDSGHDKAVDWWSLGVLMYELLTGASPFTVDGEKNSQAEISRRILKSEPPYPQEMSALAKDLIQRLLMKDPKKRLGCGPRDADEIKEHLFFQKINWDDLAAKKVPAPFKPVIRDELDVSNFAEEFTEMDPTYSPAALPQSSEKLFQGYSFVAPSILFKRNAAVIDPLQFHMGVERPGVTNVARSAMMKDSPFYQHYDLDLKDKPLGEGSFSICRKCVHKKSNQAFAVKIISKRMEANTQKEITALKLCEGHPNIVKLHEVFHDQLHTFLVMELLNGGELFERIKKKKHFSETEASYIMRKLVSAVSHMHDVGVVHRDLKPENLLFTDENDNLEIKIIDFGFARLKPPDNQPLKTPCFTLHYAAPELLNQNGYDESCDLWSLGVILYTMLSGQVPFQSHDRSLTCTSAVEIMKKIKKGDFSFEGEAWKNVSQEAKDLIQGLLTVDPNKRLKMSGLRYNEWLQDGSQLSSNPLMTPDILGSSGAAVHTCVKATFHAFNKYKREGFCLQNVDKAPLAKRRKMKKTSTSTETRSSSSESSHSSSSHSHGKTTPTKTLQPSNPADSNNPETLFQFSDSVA

Sequence of Cyclin-dependent kinase 7 (Homo sapiens) (P50613 whole entry): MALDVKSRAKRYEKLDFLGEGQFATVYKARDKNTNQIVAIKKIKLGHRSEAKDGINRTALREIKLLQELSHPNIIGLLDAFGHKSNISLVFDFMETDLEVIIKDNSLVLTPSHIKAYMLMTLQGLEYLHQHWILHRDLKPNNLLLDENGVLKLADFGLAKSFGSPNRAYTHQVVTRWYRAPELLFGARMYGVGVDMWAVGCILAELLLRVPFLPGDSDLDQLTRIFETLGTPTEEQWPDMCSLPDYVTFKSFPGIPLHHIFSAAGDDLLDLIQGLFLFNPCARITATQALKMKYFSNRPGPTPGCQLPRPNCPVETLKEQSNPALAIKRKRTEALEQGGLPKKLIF

Q: Which results are given for `COc1cc2ncnc(N[C@H](C)c3cccc4ccccc34)c2cc1OC`?
A: Activity [1]: 70%; Activity [2]: 88%; Activity [3]: 87%; Activity [4]: 93%
